Test results taken from patent US20250270180A1, “MEK INHIBITORS AND THERAPEUTIC USES THEREOF” (Immuneering Corporation, priority 2020, published 2025).
Blank lines part the entries; values can stand above or below the compound they belong to.

What was measured:
in vitro = conditions: human, Caco-2
CYP450 2D6 = CYP450 2D6 (Homo sapiens, UniProt P10635)
A549 (KRAS-G12S) pERK = experiment: Cell-based pERK dose response study, A549; conditions: Homo sapiens; A549; 12-point dose; 2 hours
Procedure: Materials and Methods: A549 or A375 cells were seeded in 6-well plates at an appropriate seeding density on day 0. On day 2 or 3, after checking the health and confluency of cells, the media was aspirated and replaced with 1 mL media containing a predetermined concentration of compound and incubated for 2 hours. After 2 hours, the media was aspirated, and the cells washed 2 times with cold PBS. Cells were lysed on ice, with 50 uL 1×CST lysis buffer+1 mM PMSF for 5 minutes. After 5 minutes, cells were removed using a scraper and transferred to cold 1.5 mL tubes, and centrifuged for 10 min, 4° C., 14,000×g. Supernatant was gently removed and snap frozen in liquid nitrogen. Protein concentration of the lysate was determined using Bradford Reagent (analyzed using SpectraMax M2E) and diluted to 1 mg/mL or pERK or 1.5 mg/mL for pMEK analysis. […] All dilutions were in Milk-free antibody diluent.

A549 pMEK:tMEK (CRAF) = experiment: CRAF-bypass pMEK:tMEK, A549; assay type: cell-based
Procedure: Materials and Methods: A549 or A375 cells were seeded in 6-well plates at an appropriate seeding density on day 0. On day 2 or 3, after checking the health and confluency of cells, the media was aspirated and replaced with 1 mL media containing a predetermined concentration of compound and incubated for 2 hours. After 2 hours, the media was aspirated, and the cells washed 2 times with cold PBS. Cells were lysed on ice, with 50 uL 1×CST lysis buffer+1 mM PMSF for 5 minutes. After 5 minutes, cells were removed using a scraper and transferred to cold 1.5 mL tubes, and centrifuged for 10 min, 4° C., 14,000×g. Supernatant was gently removed and snap frozen in liquid nitrogen. Protein concentration of the lysate was determined using Bradford Reagent (analyzed using SpectraMax M2E) and diluted to 1 mg/mL or pERK or 1.5 mg/mL for pMEK analysis. Cell lysates were then analyzed for phosphor-ERK/total-ERK levels on a Jess system (ProteinSimple; Cat #JS3346) using the following antibodies: tERK1/2 (CST 4696; 1:50) and pERK1/2 (CST 4377; 1:50). […]
A549 or […] cells were treated in duplicate for two hours with compounds at varying concentrations. […] After storage, the lysate was quantified with the Bradford assay. Before the lysates were prepared to run on the Jess, the lysates were diluted to 1 mg/mL for pERK analysis and 1.5 mg/mL pMEK analysis using quantitative Western blotting. […]

[1] = Mouse liver microsome stability (t1/2, Clint); assay type: in vitro ADME; conditions: liver microsomes, pH 7.4, 0.5 mg/ml microsomal protein
Procedure: (Eppendorf 5804R). […] The disappearance of the parent compound was determined.

[2] = Human liver microsome stability (t1/2, Clint); assay type: in vitro ADME; conditions: microsomes, pH 7.4, 0.5 mg/ml microsomal protein
[3] = Kinetic solubility (PBS pH 7.4; 4 hr); assay type: physicochemical; conditions: 10 mM PBS buffer, aqueous buffer, kinetic from dmso stock
Procedure: The plates were shaken for 4 h at room temperature in an Eppendorf Thermomixer. After incubation, the plates were centrifuged for 20 minutes at 4680 rpm. From the supernatant, 150 uL was transferred to a new 96 well plate and 50 uL DMSO was added to ensure continued dissolution. Samples were measured on LC-UV at injection volumes of 1 and 8 uL. Peak areas were determined and compared to peak areas obtained using calibration curves of the test compounds in DMSO.

[4] = eLogD (lipophilicity; pH 7.4); assay type: physicochemical
Procedure: Test compounds were dissolved in DMSO at a concentration of 10 mM and further diluted with methanol: water 1:1. Samples were analyzed using gradient HPLC with three different isocratic mobile phases of 0.25% octanol in methanol (60, 65 and 70%) and 20 mM MOPS buffer (pH 7.4) with decylamine. If needed, (for low ElogDoct compounds) the isocratic mobile phases were adjusted to e.g. 40, 45 and 50% methanol. Peaks were detected using a diode array at absorbance 220-320 nm.
Capacity factors data (k′ _=(tr−_t0)/t0) obtained at various amounts of methanol were extrapolated to 0% methanol and k′w values are determined using a linear procedure. ElogDoct (7.4) is calculated using a series of reference standards with known Log D values. Each experiment was performed in triplicate.

PAMPA (pH 7.4) = conditions: PAMPA
Procedure: Each stock solution was diluted to 50 uM in pH 7.4 Prisma HT buffer (pION) and 200 ul was added to each well of the donor plate in triplicate. The polyvinylidene fluoride (PVDF, 0.45 μm) filter membrane on the acceptor plate was coated with 5 ul gastrointestinal tract lipid formulation (GIT-0, pION) and to each well of the acceptor plate, 200 μl of acceptor sink buffer (pION) was added. The acceptor filter plate was then carefully placed on top of the donor plate to form a sandwich. The sandwich was incubated at 25° C. for 4 h without stirring. UV-vis spectra of the solutions in the blank, reference, acceptor and donor plates were measured using a microplate reader (Tecan Infinite 200PRO M Nano Plus). Permeability values were calculated using the PAMPA explorer software v. 3.8.0.2 (pION).

[5] = Single dose PK profile (plasma and tumor) in Colon26 tumor bearing mice; assay type: in vivo; conditions: female, mouse
Procedure: Female mice (either athymic BALC/c nude, or BALB/c mice) were inoculated with a single subcutaneous injection of 0.1 ml of mouse Colon-26 cell suspension (1×10^5 cells per animal) in the right flank region. Colon26 (C26) tumor bearing mice received a single dose (3-4 mice/treatment) of vehicle (10% DMSO/90% [20% SBE-B-CD in saline], pH 5) containing compounds at indicated dose by gavage (p.o.) or intravenous administration (i.v.) and at various time points (0.16, 0.5, 1, 2, 4, 8, 12, 16, 24-hour) post dose humanely euthanized. Blood was obtained through cardiac puncture into K+EDTA tubes, mixed by inversion and centrifuged to obtain the plasma. Tissues were excised, cleaned of surrounding tissues. All samples immediately snap frozen in liquid N2 prior to LC-MS/MS analysis (using Agilent Poroshell-120 EC-C18 (4.0 μm) 2.1×50 mm, and a Water+API-4000 Electrospray MS unit). The results of this study are illustrated in FIGS. 16, and 17. Tables 11 describes a single does PK profile (plasma) and Table 12 describes a single dose PK profile (tumor).

[6] = Inv New Drugs (2018) 36, 1037-1043; cited from earlier work
[7] = athymic BALB/c nude or BALB/c, iv, 25 mg/kg, plasma, 25 mpk i.v.
[8] = athymic BALB/c nude or BALB/c, po, 25 mg/kg, plasma, 25 mpk p.o.
[9] = athymic BALB/c nude or BALB/c, po, 100 mg/kg, plasma, 100 mpk p.o.
[10] = iv, 25 mg/kg, plasma, 25 mpk i.v.
[11] = iv, 25 mg/kg, tumor, 25 mpk i.v.
[12] = po, 25 mg/kg, plasma, 25 mpk p.o.
[13] = po, 25 mg/kg, tumor, 25 mpk p.o.
[14] = po, 100 mg/kg, plasma, 100 mpk p.o.
[15] = po, 100 mg/kg, tumor, 100 mpk p.o.

CYP450 2D6, sequence (P10635 whole entry): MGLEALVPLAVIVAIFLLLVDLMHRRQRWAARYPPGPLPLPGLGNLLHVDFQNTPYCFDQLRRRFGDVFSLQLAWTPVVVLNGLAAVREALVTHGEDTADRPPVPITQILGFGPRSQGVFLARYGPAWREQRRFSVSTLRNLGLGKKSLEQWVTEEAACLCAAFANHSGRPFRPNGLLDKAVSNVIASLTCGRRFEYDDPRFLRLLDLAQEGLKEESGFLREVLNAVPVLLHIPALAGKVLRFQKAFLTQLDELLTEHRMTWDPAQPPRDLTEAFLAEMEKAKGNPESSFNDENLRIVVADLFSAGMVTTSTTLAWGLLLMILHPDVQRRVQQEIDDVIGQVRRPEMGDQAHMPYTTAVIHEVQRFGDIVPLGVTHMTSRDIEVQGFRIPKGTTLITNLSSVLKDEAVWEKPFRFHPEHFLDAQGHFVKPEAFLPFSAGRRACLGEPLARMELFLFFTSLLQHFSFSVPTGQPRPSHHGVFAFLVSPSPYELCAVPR

Papp A→B at 2 h, 10 μM (in vitro): > 1 ×10⁻⁶ cm/s
Structure (SMILES): CC(=O)CC(c1ccccc1)c1c(O)c2ccccc2oc1=O (centres unmarked) [Warfarin]

Structure (SMILES): C=C[C@H]1C[N@@]2CC[C@H]1C[C@@H]2[C@@H](O)c1ccnc2ccc(OC)cc12 [Quinidine]
2D6* (CYP450 2D6): 99.7

Structure (SMILES): CNS(=O)(=O)Nc1cccc(Cc2c(CN3CCC3)c3ccc(OC(=O)N(C)C)cc3oc2=O)c1F [Compound 197]
IC50 (A549 (KRAS-G12S) pERK): 4.3 nM
CRAF A549 pMEK:tMEK [100 nM; 2 hr] (A549 pMEK:tMEK (CRAF)): 0.49
half-life at 1 uM [1]: 53 min
microsomal CLint at 1 uM [1]: 26 µL/min/mg
half-life at 1 uM [2]: 38 min
solubility kinetic at 4 h [3]: > 80 µM
chromatographic logD [4]: 2.9
Papp at 4 h, 50 uM (PAMPA (pH 7.4)): 51 ×10⁻⁶ cm/s
Tmax [5, 7]: 9.6 min
half-life [5, 7]: 143 min
bioavailability [5, 8]: 47%
half-life [5, 8]: 73.8 min
bioavailability [5, 9]: 100%
half-life [5, 9]: 82.8 min
AUC(0-inf) [5, 10]: 7740 ng·h/mL
AUC(0-t) [5, 10]: 7730 ng·h/mL
Cmax [5, 10]: 10900 ng/mL
AUC(0-inf) [5, 11]: 8360 ng·h/mL
AUC(0-t) [5, 11]: 8320 ng·h/mL
Cmax [5, 11]: 6750 ng/mL
Tmax [5, 11]: 30 min
AUC(0-inf) [5, 12]: 3650 ng·h/mL
AUC(0-t) [5, 12]: 3640 ng·h/mL
Cmax [5, 12]: 2320 ng/mL
Tmax [5, 12]: 30 min
AUC(0-t) [5, 13]: 3460 ng·h/mL
Cmax [5, 13]: 1920 ng/mL
Tmax [5, 13]: 60 min
bioavailability [5, 13]: 42%
AUC(0-inf) [5, 14]: 31100 ng·h/mL
AUC(0-t) [5, 14]: 31100 ng·h/mL
Cmax [5, 14]: 14200 ng/mL
Tmax [5, 14]: 9.6 min
AUC(0-inf) [5, 15]: 37100 ng·h/mL
AUC(0-t) [5, 15]: 36900 ng·h/mL
Cmax [5, 15]: 12600 ng/mL
Tmax [5, 15]: 60 min
bioavailability [5, 15]: 111%

Structure (SMILES): Cn1cnc2c(F)c(Nc3ccc(Br)cc3F)c(C(=O)NOCCO)cc21 [binimetinib]
muscle gain in patients with BTC [6]: promote muscle gain
